Results taken from patent publication EP4810040A2, “INHIBITORS OF APOL1 AND METHODS OF USING SAME” (priority 2020, dated 2022).

Target: T1, APOL1 G1 (Homo sapiens, UniProt O14791, I384M/S342G)
T1 sequence (O14791 28-398 S342G/I384M): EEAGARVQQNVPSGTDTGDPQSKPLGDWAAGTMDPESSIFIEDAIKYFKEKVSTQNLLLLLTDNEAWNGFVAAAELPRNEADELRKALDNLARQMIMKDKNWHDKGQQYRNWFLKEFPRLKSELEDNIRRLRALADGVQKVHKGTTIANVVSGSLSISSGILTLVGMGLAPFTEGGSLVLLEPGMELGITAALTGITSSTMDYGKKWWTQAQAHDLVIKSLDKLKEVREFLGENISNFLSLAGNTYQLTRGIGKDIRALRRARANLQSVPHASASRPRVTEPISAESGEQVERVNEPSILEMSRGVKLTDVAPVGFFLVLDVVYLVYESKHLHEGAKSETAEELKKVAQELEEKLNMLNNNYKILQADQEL
Test: MultiTox-Fluor Multiplex Cytotoxicity Assay, tet-inducible APOL1 G1 T-REx-HEK293 cells
Format: cell-based
Design: expressed in transfected cells; host or cells: T-REx HEK293, clone G1 DC3.25 (pAAVS1-Puro-APOL1 G1)
Details: for IC90: HEK293, Multi-Tox Assay, APOL1 variant (G0/G1/G2) of the HEK293 cells not given, read-out: Multi-Tox Assay IC90; for Multi-Tox Assay Max Activity (%): APOL1 variant not given
Procedure, shortened: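 Over 24 h at 37 °C, compounds (10-point 3-fold series from 10 µM, duplicate) were co-incubated with 50 ng/mL tetracycline inducing APOL1 G1 in T-REx-HEK293 cells. Viability/cytotoxicity measured by MultiTox-Fluor as dead-to-live fluorescence ratio, expressed as percent of control between uninduced and induced wells and fitted.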

SMILES	IC90	Multi-Tox Assay Max Activity (%)
CC(CO)Cn1cc([C@@H]2C[C@]3(C[C@H](C)N2)OC[C@@H](O)c2cc(Cl)sc23)nn1 (some centres unmarked) [Compound 256]	50 to 500 nM	96.0%
CCOCCn1cc([C@@H]2C[C@]3(C[C@H](C)N2)OC[C@@H](O)c2cc(Cl)sc23)nn1 [Compound 257]	50 to 500 nM	101.0%
CNC(=O)C(C)Cn1cc([C@@H]2C[C@]3(C[C@H](C)N2)OC[C@@H](O)c2cc(Cl)sc23)nn1 (some centres unmarked) [Compound 258]	> 500 nM	98.0%
C[C@H]1C[C@@]2(C[C@@H](c3cn(Cc4ccc(O)cc4)nn3)N1)OC[C@@H](O)c1cc(Cl)sc12 [Compound 259]	50 to 500 nM	100.0%
Cc1cccc(OCC(O)Cn2cc([C@@H]3C[C@]4(C[C@H](C)N3)OC[C@@H](O)c3cc(Cl)sc34)nn2)c1 (some centres unmarked) [Compound 260]	50 to 500 nM	–
Cc1ccccc1C(O)Cn1cc([C@@H]2C[C@]3(C[C@H](C)N2)OC[C@@H](O)c2cc(Cl)sc23)nn1 (some centres unmarked) [Compound 261]	50 to 500 nM	100.0%
C[C@H]1C[C@@]2(C[C@@H](c3cn(CCc4ccncn4)nn3)N1)OC[C@@H](O)c1cc(Cl)sc12 [Compound 262]	50 to 500 nM	–
COC(=O)Cn1cc([C@@H]2C[C@]3(C[C@H](C)N2)OC[C@@H](O)c2cc(Cl)sc23)nn1 [Compound 263]	> 500 nM	86.0%
CC(CO)CCn1cc([C@@H]2C[C@]3(C[C@H](C)N2)OC[C@@H](O)c2cc(Cl)sc23)nn1 (some centres unmarked) [Compound 264]	50 to 500 nM	100.0%
C[C@H]1C[C@@]2(C[C@@H](c3cn(CC4CCS(=O)(=O)C4)nn3)N1)OC[C@@H](O)c1cc(Cl)sc12 (some centres unmarked) [Compound 265]	50 to 500 nM	–
C[C@H]1C[C@@]2(C[C@@H](c3cn(Cc4ccc(OC5CCOCC5)cc4)nn3)N1)OC[C@@H](O)c1cc(Cl)sc12 [Compound 266]	50 to 500 nM	100.0%
C[C@H]1C[C@@]2(C[C@@H](c3cn(CC4CCOCC4)nn3)N1)OC[C@@H](O)c1cc(Cl)sc12 [Compound 267]	50 to 500 nM	–
C[C@H]1C[C@@]2(C[C@@H](c3cn(Cc4cccc5c4OCCO5)nn3)N1)OC[C@@H](O)c1cc(Cl)sc12 [Compound 268]	50 to 500 nM	–
C[C@H]1C[C@@]2(C[C@@H](c3cn(CC4CCOC4)nn3)N1)OC[C@@H](O)c1cc(Cl)sc12 (some centres unmarked) [Compound 269]	50 to 500 nM	–
COCC1(Cn2cc([C@@H]3C[C@]4(C[C@H](C)N3)OC[C@@H](O)c3cc(Cl)sc34)nn2)CC1 [Compound 270]	> 500 nM	93.0%
C[C@H]1C[C@@]2(C[C@@H](c3cn(Cc4cccc(CO)c4)nn3)N1)OC[C@@H](O)c1cc(Cl)sc12 [Compound 271]	50 to 500 nM	97.0%
Cc1nnc(Cn2cc([C@@H]3C[C@]4(C[C@H](C)N3)OC[C@@H](O)c3cc(Cl)sc34)nn2)[nH]1 [Compound 272]	> 500 nM	95.0%
C[C@H]1C[C@@]2(C[C@@H](c3cn(CCC4CCCOC4)nn3)N1)OC[C@@H](O)c1cc(Cl)sc12 (some centres unmarked) [Compound 273]	50 to 500 nM	101.0%
Cc1ccnn1CCn1cc([C@@H]2C[C@]3(C[C@H](C)N2)OC[C@@H](O)c2cc(Cl)sc23)nn1 [Compound 274]	50 to 500 nM	97.0%
C[C@H]1C[C@@]2(C[C@@H](c3cn(Cc4ccc(O)nc4)nn3)N1)OC[C@@H](O)c1cc(Cl)sc12 [Compound 275]	> 500 nM	94.0%
C[C@H]1C[C@@]2(C[C@@H](c3cn(Cc4cnccn4)nn3)N1)OC[C@@H](O)c1cc(Cl)sc12 [Compound 276]	50 to 500 nM	100.0%
Cc1ncc(Cn2cc([C@@H]3C[C@]4(C[C@H](C)N3)OC[C@@H](O)c3cc(Cl)sc34)nn2)cn1 [Compound 277]	50 to 500 nM	100.0%
